Values of other authors in publication PMC9329312, “Decoding kinase-adverse event associations for small molecule kinase inhibitors” (Nature Communications, 2022).
Where two headings read alike, the source gives them in different places.

Details: ref FAERS

SMILES: CCOc1cc2ncc(C#N)c(Nc3ccc(OCc4ccccn4)c(Cl)c3)c2cc1NC(=O)/C=C/CN(C)C [neratinib]
- Pyrexia, % of Cases: 1.4%
- Quality of life decreased, % of Cases: 0.075%
- Radiation injury, % of Cases: 0.075%
- Rash erythematous, % of Cases: 0.3%
- Rash macular, % of Cases: 0.075%
- Rash papular, % of Cases: 0.075%
- Rash pruritic, % of Cases: 0.3%
- Rash pustular, % of Cases: 0.225%
- Rash vesicular, % of Cases: 0.075%
- Rash, % of Cases: 5.0%
- Raynaud's phenomenon, % of Cases: 0.075%
- Recall phenomenon, % of Cases: 0.075%
- Rectal haemorrhage, % of Cases: 0.5%
- Recurrent cancer, % of Cases: 0.075%
- Red blood cell count decreased, % of Cases: 0.225%
- Red blood cell sedimentation rate increased, % of Cases: 0.075%
- Reflux laryngitis, % of Cases: 0.15%
- Refraction disorder, % of Cases: 0.075%
- Renal disorder, % of Cases: 0.45%
- Renal failure, % of Cases: 0.6%
- Renal function test abnormal, % of Cases: 0.15%
- Renal impairment, % of Cases: 0.8%
- Renal mass, % of Cases: 0.075%
- Respiratory arrest, % of Cases: 0.075%
- Respiratory failure, % of Cases: 0.15%
- Restless legs syndrome, % of Cases: 0.075%
- Retching, % of Cases: 0.3%
- Retinal artery occlusion, % of Cases: 0.075%
- Retinal tear, % of Cases: 0.075%
- Rhinorrhoea, % of Cases: 0.75%
- Road traffic accident, % of Cases: 0.075%
- Rubber sensitivity, % of Cases: 0.075%
- Saliva altered, % of Cases: 0.075%
- Salivary gland cancer, % of Cases: 0.15%
- Salpingectomy, % of Cases: 0.075%
- Salpingo-oophorectomy bilateral, % of Cases: 0.075%
- Scab, % of Cases: 0.075%
- Seasonal allergy, % of Cases: 0.075%
- Seizure, % of Cases: 0.225%
- Sensation of foreign body, % of Cases: 0.15%
- Seroma, % of Cases: 0.075%
- Sinus disorder, % of Cases: 0.075%
- Sinus headache, % of Cases: 0.075%
- Sinus tachycardia, % of Cases: 0.075%
- Sinusitis, % of Cases: 0.15%
- Sjogren's syndrome, % of Cases: 0.075%
- Skin atrophy, % of Cases: 0.075%
- Skin burning sensation, % of Cases: 0.075%
- Skin discolouration, % of Cases: 0.225%
- Skin disorder, % of Cases: 0.075%
- Skin erosion, % of Cases: 0.075%
- Skin exfoliation, % of Cases: 0.8%
- Skin fissures, % of Cases: 0.9%
- Skin haemorrhage, % of Cases: 0.075%
- Skin irritation, % of Cases: 0.075%
- Skin odour abnormal, % of Cases: 0.075%
- Skin reaction, % of Cases: 0.075%
- Skin ulcer, % of Cases: 0.075%
- Sleep disorder, % of Cases: 0.15%
- Slow speech, % of Cases: 0.075%
- Sluggishness, % of Cases: 0.075%
- Small intestine adenocarcinoma, % of Cases: 0.075%
- Sneezing, % of Cases: 0.225%
- Snoring, % of Cases: 0.075%
- Somnolence, % of Cases: 1.5%
- Spinal pain, % of Cases: 0.075%
- Sputum retention, % of Cases: 0.075%
- Staphylococcal infection, % of Cases: 0.075%
- Stomatitis, % of Cases: 2.0%
- Stress fracture, % of Cases: 0.075%
- Stress, % of Cases: 0.3%
- Subclavian vein thrombosis, % of Cases: 0.075%
- Sunburn, % of Cases: 0.075%
- Surgery, % of Cases: 0.6%
- Swelling face, % of Cases: 0.225%
- Swelling, % of Cases: 0.15%
- Swollen tongue, % of Cases: 0.15%
- Syncope, % of Cases: 0.15%
- Tachycardia, % of Cases: 0.225%
- Taste disorder, % of Cases: 1.2%
- Temporomandibular joint syndrome, % of Cases: 0.075%
- Tenderness, % of Cases: 0.075%
- Tension headache, % of Cases: 0.075%
- Therapeutic product ineffective for unapproved indication, % of Cases: 0.075%
- Therapy cessation, % of Cases: 0.375%
- Therapy change, % of Cases: 0.225%
- Therapy interrupted, % of Cases: 0.15%
- Thirst, % of Cases: 0.375%
- Throat irritation, % of Cases: 0.075%
- Throat tightness, % of Cases: 0.075%
- Thrombocytopenia, % of Cases: 0.075%
- Thrombosis, % of Cases: 0.225%
- Thyroid cancer, % of Cases: 0.075%
- Thyroid mass, % of Cases: 0.075%
- Tongue discolouration, % of Cases: 0.075%
- Tongue discomfort, % of Cases: 0.075%
- Tongue erythema, % of Cases: 0.15%
- Tooth extraction, % of Cases: 0.075%
- Tooth fracture, % of Cases: 0.075%
- Tooth injury, % of Cases: 0.075%
- Toothache, % of Cases: 0.15%
- Toxicity to various agents, % of Cases: 0.075%
- Tracheal disorder, % of Cases: 0.075%
- Transaminases increased, % of Cases: 0.075%
- Transient ischaemic attack, % of Cases: 0.075%
- Transitional cell carcinoma metastatic, % of Cases: 0.075%
- Treatment noncompliance, % of Cases: 0.075%
- Tremor, % of Cases: 0.375%
- Trichorrhexis, % of Cases: 0.075%
- Tumour flare, % of Cases: 0.075%
- Tumour marker increased, % of Cases: 0.075%
- Tumour pain, % of Cases: 0.075%
- Tumour ulceration, % of Cases: 0.075%
- Underdose, % of Cases: 2.6%
- Upper limb fracture, % of Cases: 0.075%
- Upper respiratory tract infection, % of Cases: 0.375%
- Upper-airway cough syndrome, % of Cases: 0.075%
- Urinary retention, % of Cases: 0.075%
- Urinary tract discomfort, % of Cases: 0.075%
- Urinary tract infection, % of Cases: 2.1%
- Urine analysis abnormal, % of Cases: 0.075%
- Urine odour abnormal, % of Cases: 0.075%
- Urticaria, % of Cases: 0.375%
- Uterine cancer, % of Cases: 0.075%
- Uterine leiomyoma, % of Cases: 0.075%
- Vaginal discharge, % of Cases: 0.075%
- Vaginal haemorrhage, % of Cases: 0.225%
- Venous pressure jugular increased, % of Cases: 0.075%
- Vertigo positional, % of Cases: 0.075%
- Vertigo, % of Cases: 0.075%
- Viral infection, % of Cases: 0.15%
- Vision blurred, % of Cases: 0.375%
- Visual impairment, % of Cases: 0.225%
- Vitamin D decreased, % of Cases: 0.075%
- Vitiligo, % of Cases: 0.075%
- Vitreous floaters, % of Cases: 0.075%
- Volume blood decreased, % of Cases: 0.075%
- Vomiting projectile, % of Cases: 0.075%
- Vomiting, % of Cases: 13.8%
- Vulvovaginal burning sensation, % of Cases: 0.075%
- Vulvovaginal dryness, % of Cases: 0.075%
- Vulvovaginal pain, % of Cases: 0.075%
- Vulvovaginal pruritus, % of Cases: 0.15%
- Weight decreased, % of Cases: 4.9%
- Weight fluctuation, % of Cases: 0.075%
- Weight increased, % of Cases: 0.3%
- White blood cell count decreased, % of Cases: 0.7%
- White blood cell count increased, % of Cases: 0.15%
- Wound haemorrhage, % of Cases: 0.075%
- Wound, % of Cases: 0.075%
- Wrist fracture, % of Cases: 0.075%
- Wrong technique in product usage process, % of Cases: 0.075%
- Xeroderma, % of Cases: 0.075%
- Abdominal discomfort, % of Cases (listed as Neratinib): 4.80%
- Abdominal pain upper, % of Cases (listed as Neratinib): 6.00%
- Abdominal pain, % of Cases (listed as Neratinib): 6.20%
- Constipation, % of Cases (listed as Neratinib): 15.50%
- Death, % of Cases (listed as Neratinib): 9.60%
- Decreased appetite, % of Cases (listed as Neratinib): 11.90%
- Dehydration, % of Cases (listed as Neratinib): 6.60%
- Diarrhoea, % of Cases (listed as Neratinib): 61.80%
- Dizziness, % of Cases (listed as Neratinib): 4.60%
- Dyspepsia, % of Cases (listed as Neratinib): 4.40%
- Fatigue, % of Cases (listed as Neratinib): 25.20%
- Headache, % of Cases (listed as Neratinib): 5.40%
- Hospitalisation, % of Cases (listed as Neratinib): 5.30%
- Muscle spasms, % of Cases (listed as Neratinib): 4.20%
- Nausea, % of Cases (listed as Neratinib): 29.70%
- Off label use, % of Cases (listed as Neratinib): 11.60%
- Product dose omission issue, % of Cases (listed as Neratinib): 7.80%
- Rash, % of Cases (listed as Neratinib): 5.00%
- Vomiting, % of Cases (listed as Neratinib): 13.80%
- Weight decreased, % of Cases (listed as Neratinib): 4.90%
